Measured values published in patent US20080299123A1, “TREATMENT OF CHEMOTHERAPY- OR RADIOTHERAPY-RESISTANT TUMORS” (Deutsches Krebsforschungszentrum Stiftung des offentlichen …, priority 2006, published 2008).

Tests used:
Assay type in all cases: cell-based, human
PT45-P1res cells = assay: Caspase-3/-7 assay in PT45-P1res cells; conditions: for apoptosis induction after etoposide treatment (caspase-3/-7): inhibitor 10 μmol/L, 20 μg/mL etoposide 24 hours
Experimental: (a) PT45-P1 res cells were transfected with control siRNA or with two L1CAM specific siRNAs. Western blotting for the detection of full-length L1CAM or of HSP90 as a control for equal protein load was performed (upper panel). In parallel, siRNA transfected PT45-P1res cells were treated with 20 μg/mL etoposide or not for 24 hours and caspase-3/-7 activity was determined. (b) siRNA transfected PT45-P1res cells were subjected to L1CAM immunostaining (L1-11A antibody) or staining with an isotype matched control antibody followed by flow cytometry. One representative histogram is shown. (c) siRNA transfected PT45-P1res cells were analysed by western blotting for the detection of full-length L1 CAM, αv-integrin or HSP90 (d) After overnight siRNA transfection, cells were either left untreated or were either treated with 20 μg/mL etoposide or with 5 μg/mL gemcitabine for 24 hours, followed by either AnnexinV/PI staining and flow cytometry (AnnexinV positive cells over basal) or by caspase-3/-7 assay (n-fold induced caspase-3/-7 activity of basal). (e) PT45-P1res cells were either left untreated (w/o) or were treated with 20 μg/mL etoposide in the absence (w/o) or presence of either 5 μg/mL anti L1CAM antibody (Clone L1-11A) or 5 μg/mL isotype matched control antibody. After 24 hours, cells were analysed by AnnexinV/PI staining or by caspase-3/-7 assay. Means±SD from three independent experiments are shown. * indicates p<0.05.
(§1) As described elsewhere (Sebens Müerköster et al., 2006), apoptosis was determined by staining with annexinV/propidium iodide (Biocarta, Hamburg, Germany) and subsequent fluorescence flow cytometry (GalaxyArgon Plus; DAKO Cytomation, Hamburg, Germany) using the FLOMAX software, and by the detection of caspase-3/-7 activity using a homogeneous luminescent assay (Promega, Mannheim, Germany). All samples were measured in duplicates.
(§2) For L1CAM transfection, PT45-P1 cells were seeded into 6 well plates (2×10^5 cells/well), were grown overnight, followed by transfection with 5 μL/well DIMRIE reagent (Invitrogen) and 0.6 μg/well of the following plasmids: pcDNA3.1 (mock) or pcDNA3.1-L1CAM (L1CAM). Upon transfection for 18 hours, 1 mL medium containing 20% FCS was added and cells were left untreated or were treated as indicated for further 24 hours. For knock down of L1CAM, PT45-P1res cells were seeded into 12 well plates (1×10^5 cells/well), were grown overnight followed by transfection with 12 μL/well RNAiFect reagent (Invitrogen) and 2 μg/well of either Stealth negative control siRNA (Invitrogen) or Stealth L1CAM siRNA (Invitrogen). After overnight transfection, cells were either left untreated or treated as indicated for further 24 hours.

L1CAM [1] = assay: L1CAM expression in PT45-P1res cells (western blotting, flow cytometry, real-time PCR); conditions: for L1CAM expression (full-length 220 kDa and 32 kD fragment): inhibitor 10 μmol/L, 24 hours
Experimental: After washing in PBS, cells grown in 6-well culture plates were detached with 5 mmol/L EDTA in PBS and then washed with PBS once again. Blocking was conducted in 1% BSA/PBS for 60 min. at room temperature followed by incubation with the anti L1CAM antibody L1-11A or an isotype matched control antibody (1:1000, in 1% BSA/PBS) at 4° C. overnight. Then, cells were washed three times in PBS followed by incubation (60 min, 37° C.) with a goat-anti mouse antibody conjugated with Alexa flour 488 (Dianova, Hamburg, Germany) diluted 1:500 in 1% BSA/PBS. After washing in PBS, cells were resuspended in 500 μL PBS and analysed by fluorescence flow cytometry.
(§3) Cells were seeded into 6 well and 12 well plates, respectively, and transfected or treated as indicated. Then, cells were washed once with PBS and lysed with 1 volume of 2×SDS sample buffer (128 mmol/L Tris-Base, 4.6% SDS, 10% glycerol). Samples were heated for 5 minutes at 95° C. and put on ice for 2 minutes. Protein concentrations were determined using the Dc Protein assay (BioRad). Ten μg of protein adjusted to an appropriate volume of SDS sample buffer containing 0.2 mg/mL bromphenolblue (Serva, Heidelberg, Germany) and 2.5% β-mercaptoethanol (Biomol, Hamburg, Germany) were submitted to electrophoresis on a 4-20% ProGel-Tris-glycin-gel (Anamed, Darmstadt, Germany) and immunoblotting was performed as described previously (Arlt et al, 2001). For detection of L1CAM, a monoclonal antibody (clone UJ127 from Acris Antibodies) was diluted at a concentration of 0.4 μg/mL in 5% nonfat milk powder and 0.05% Tween in TBS (blotto) and incubated overnight at 4° C. For detection of the cytoplasmic domain of L1CAM, the pcytL1 antibody (Mechtersheimer et al., 2001) was used at a concentration of 1 μg/mL in blotto and incubated overnight at 4° C. As control of equal protein load, a polyclonal rabbit antibody for HSP90 (Santa Cruz, Heidelberg, Germany) was diluted 1:2000 in blotto. The mouse anti CD51 antibody from Beckman Coulter GmbH (Krefeld, Germany) was used at a concentration of 1:500 in blotto for detection of human αv integrin. Incubation with the primary antibodies was performed overnight at 4° C. For detection of the primary antibodies, anti-mouse and anti-rabbit HRP-linked antibodies (Cell Signaling), respectively, were used at a dilution of 1:2000 in blotto-TBST at room temperature for 1 hour. After washing in TBST, blots were developed using the LumiGlo peroxidase detection kit (Cell Signaling).
2 μg of total RNA were reverse-transcribed into single-stranded cDNA, as described previously (Schafer et al., 1999). Two μL of cDNA and 0.2 μmol/L gene-specific primers were adjusted with RNAse-free water to a volume of 15 μL. To this mixture, 15 μL of iQ SYBR Green Supermix (BioRad) were added. Primers for the detection of L1CAM (Gavert et al., 2005) were used under the following conditions: 95° C./1 min; 95° C./1 min, 52° C./30 see, 72° C./30 see for 40 cycles; 72° C./10 min. Primers for the detection of iNOS were from Biosource (Ratingen, Germany) and used under the following PCR conditions: 95° C./5 min; 95° C./45 sec, 60° C./45 sec, 72° C./45 sec for 40 cycles; 72° C./10 min. For control, β-actin was amplified in parallel using primers from BD Biosciences Clontech. […] Data were collected during annealing steps and were further analysed by using the i-Cycler iQ Optical system software (BioRad). All samples were analysed in duplicates and data are expressed as amount of mRNA in arbitrary units.

[2] = tested on: L1CAM transfected PT45-P1 cells; assay: Caspase-3/-7 assay in L1CAM transfected PT45-P1 cells; conditions: inhibitor 10 μmol/L, 20 μg/mL etoposide 24 hours
Experimental: (§4) PT45-P1res cells (a,b) or PT45-P1 cells transfected with L1CAM or an empty control vector (mock) (c,d) were left untreated (w/o) or were either treated with Tapi-0, Tapi-1, GM6001 or L685,458 (each 10 μmol/L) for 24 hours. (a,c) Cellular lysates were subjected to western blotting using either the antibody clone UJ127 from Acris detecting only full-length L1CAM or the pcytL1 antibody detecting also the cytoplasmic part of L1CAM. HSP90 was detected as a control for equal protein load. (b,d) Thirty minutes after treatment with the respective inhibitor, cells were either left untreated or treated with 20 μg/mL etoposide for 24 hours. Then, cells were analysed for caspase-3/-7 activity expressed as n-fold induction of caspase-3/-7 activity of basal. Means±SD from three independent experiments are shown. * indicates p<0.05.
as §1, §2

L1CAM [3] = assay: L1CAM cleavage by western blotting in L1CAM transfected PT45-P1 cells; conditions: inhibitor 10 μmol/L, 24 hours
Experimental: as §4, §3

[4] = Induction of apoptosis, Nicoletti staining, in HEK293 cells; conditions: human; wild-type (parental) HEK293; C2-ceramide 40 μM or staurosporine 2 μM, 24 h, serum-free, Nicoletti staining; read-out: cells still viable after treatment
Experimental: (§5) Cells (1×10^5 cells per well) were cultured in duplicate in 6 well culture plates and, after washing once with PBS, incubated for the indicated timepoints with or without apoptotic stimuli in serum-free medium. Staurosporine (2 μM), C2-ceramide (40 μM) or cisplatin (17 μM) were used as apoptotic reagents. For hypoxia studies, cells were incubated for different time points under hypoxic conditions (1% O2) using a Reming Bioinstruments chamber and oxygen regulator (Reming Bioinstruments, Redfield, N.Y.).
(§6) For quantification of DNA fragmentation, supernatants were centrifuged at 200×g. The cell pellet was washed once in PBS (pH 7.4) and lysed in a hypotonic lysis buffer (0.1% sodium citrate, 0.1% Triton X-100, 50 μg/ml propidiumiodite) at 4° C. overnight. The nuclei were then analyzed for DNA content by flow cytometry. The staining of cells for flow cytometry with mAbs and PE-conjugated secondary antibodies has been described. Cells were analysed with a FACScan using Cellquest or FlowJo software from Becton Dickinson (Heidelberg, Germany).

[5] = Induction of apoptosis, Nicoletti staining, in HEK293-hL1 cells; conditions: human; L1-expressing HEK293; C2-ceramide 40 μM or staurosporine 2 μM, 24 h, serum-free, Nicoletti staining; read-out: cells still viable after treatment
Experimental: as §5, §6

NO release = assay: NO-assay in supernatants of PT45-P1res cells; conditions: 250 ng/mL IL1-RA 24 hours
Experimental: PT45-P1res cells were transfected with a control siRNA or with a L1CAM specific siRNA. (a) RNA from transfected PT45-P1res cells was subjected to RT and subsequent Real-time PCR using primers specific for iNOS. In parallel, a Real-time PCR was conducted for β-actin, which was used as a control. Results from one representative out of three experiments are shown. Data are expressed as amount of mRNA in arbitrary units. Each sample was measured in duplicates. (b) siRNA transfected cells (16 h) were either left untreated or were treated with 250 ng/mL IL1RA for 24 hours. Then, supernatants were cleared and subjected to a commercial NO assay. The amount of NO was normalized to equal cell number which was determined in parallel (expressed as μmol NO/10^5 cells). (c) siRNA transfected cells (16 h) were either left untreated or were treated with 250 ng/mL IL1-RA and 20 μg/mL etoposide, either alone or in combination for 24 hours. Then, cells were analysed for caspase-3/-7 activity expressed as n-fold induced caspase-3/-7 activity of basal. Means±SD from three independent experiments are shown. * indicates p<0.05.
Cells were seeded for transfection and cultured as described above. […] NO secreted into cell culture supernatants was quantified using the Total nitric oxide (NO) calorimetric assay (R&D Systems). […] Concentrations of measured NO were normalized to the cell numbers determined in parallel.

CNC(=O)[C@H](Cc1c[nH]c2ccccc12)NC(=O)[C@@H](CC(=O)NO)CC(C)C [GM6001]
apoptosis induction after etoposide treatment (caspase-3/-7) (PT45-P1res cells): did not significantly affect apoptosis induction after etoposide treatment | L1CAM expression (full-length 220 kDa and 32 kD fragment) (L1CAM [1]): neither of the inhibitors changed L1 CAM expression | apoptosis inducing effect of etoposide (caspase-3/-7) [2]: nor affect the apoptosis inducing effect of etoposide | expression of full-length L1CAM and level of the 32 kD fragment (L1CAM [3]): did neither influence the expression of full-length L1CAM nor increased the level of the 32 kD fragment

CN[C@@H]1C[C@H]2O[C@@](C)([C@@H]1OC)n1c3ccccc3c3c4c(c5c6ccccc6n2c5c31)C(=O)NC4 [staurosporine]
viability at 24 h, 2 μM [4]: 59% | viability at 24 h, 2 μM [5]: 77%

CC(=O)NC(C(=O)O)C(C)(C)SN=O (racemic) [SNAP, S-Nitroso-N-acetyl-D,L-penicillamine]
increased caspase activity during L1CAM knock-down (PT45-P1res cells; 200 μmol/L SNAP with 20 μg/mL etoposide, 24 hours): completely reversed the increased caspase activity

CC(C)C[C@H](CC(=O)NO)C(=O)N[C@@H](Cc1ccc2ccccc2c1)C(=O)N[C@@H](C)C(=O)NCCN [Tapi-1]
apoptosis induction after etoposide treatment (caspase-3/-7) (PT45-P1res cells): did not significantly affect apoptosis induction after etoposide treatment | L1CAM expression (full-length 220 kDa and 32 kD fragment) (L1CAM [1]): neither of the inhibitors changed L1 CAM expression | apoptosis inducing effect of etoposide (caspase-3/-7) [2]: nor affect the apoptosis inducing effect of etoposide | expression of full-length L1CAM and level of the 32 kD fragment (L1CAM [3]): did neither influence the expression of full-length L1CAM nor increased the level of the 32 kD fragment

CC(C)C[C@H](NC(=O)[C@H](Cc1ccccc1)C[C@@H](O)[C@H](Cc1ccccc1)NC(=O)OC(C)(C)C)C(=O)N[C@@H](Cc1ccccc1)C(N)=O [L685,458]
apoptosis induction after etoposide treatment (caspase-3/-7) (PT45-P1res cells): did not significantly affect apoptosis induction after etoposide treatment | L1CAM expression (full-length 220 kDa and 32 kD fragment) (L1CAM [1]): neither of the inhibitors changed L1 CAM expression | apoptosis inducing effect of etoposide (caspase-3/-7) [2]: nor affect the apoptosis inducing effect of etoposide | expression of full-length L1CAM and level of the 32 kD fragment (L1CAM [3]): did neither influence the expression of full-length L1CAM nor increased the level of the 32 kD fragment

IL1-RA: Interleukin 1 receptor antagonist from R&D Systems
etoposide induced caspase activation (PT45-P1res cells; 250 ng/mL IL1-RA, control transfected cells): increased | NO levels (NO release; cells with L1CAM knock down): no further reducing effect | NO levels (NO release; control siRNA transfected cells): could be decreased | L1CAM expression (mRNA and protein) (L1CAM [1]; 250 ng/mL IL1-RA, 6 or 24 hours): reduced L1CAM expression
